Data from patent US20070275936A1, “Formulations and Treatment Methods” (priority 1998, published 2007).

How the values were obtained:
[1] = Plasma pharmacokinetics of 14C BrEA in Rhesus Monkeys; assay type: in vivo; settings: 1 mg/kg s.c. 14C BrEA
Experimental: A pharmacokinetic analysis of ^14C BrEA in plasma was conducted in two female Rhesus Monkeys. Trace labeled compound (16α-bromo-3-beta-hydroxy-5α-[4-^14C]-androstan-17-one [50 mCi/mmole]) was used at a dose of 1 mg/kg as a subcutaneous injection in the scapular region using an injection volume of 1 mL/kg. The BrEA was formulated in 25% polyethylene glycol 300, 12.5% absolute ethanol, 5% benzyl benzoate, and qs with propylene glycol. 40 μCi were injected per animal. Blood samples were taken at 0, 0.5, 1, 2, 4, 8, and 24 hours for determination of ^14C activity. The radioactivity in the plasma rose to near peak concentration in 8 hours and remained at approximately the same level through the end of the study at 24 hours.

[2] = Accelerated stability study of BrEA and the example 1 formulations; assay type: physicochemical
Experimental: An accelerated stability study of 6 months duration is conducted using BrEA and the formulations from example 1. Samples are taken at 1, 2, 3, 4, 5, and 6 month time points and compared with the specifications listed in example 1. Real time stability (25° C., 60% relative humidity) is conducted using BrEA formulation Lots 1 and 2, with sampling time points at 3, 6, 9, 12, 18, 24, and 36 months. […] The results from the stability testing indicate that BrEA is stable for at least 3 months at elevated temperature and humidity in the Lot 1 and 2 formulations.

[3] = tested on: HIV infected patients with chronic diarrhea; assay: Treatment of chronic diarrhea in HIV infected patients; assay type: in vivo, human; settings: two HIV infected patients, 60 mg s.c. daily for 10 days, during the period of dosing
Experimental: Two HIV infected patients with chronic diarrhea were dosed with BrEA as follows. A BrEA formulation (40 mg/mL BrEA in 25% v/v PEG 300, 12.5% v/v ethanol, 5% v/v benzyl benzoate, ˜57.5% v/v propylene glycol) was delivered subcutaneously. The patients received 60 mg of BrEA in 1.5 mL daily for 10 days. […] After the 10-day dosing period ended, diarrhea resumed. In other patients receiveing oral BrEA, diarrhea also went into remission.

Plasmodium falciparum = assay: Inhibition of parasite growth in culture; assay type: cell-based
Experimental: The effect of Epi (16α-bromo-epiandrosterone) on parasite (Plasmodium falciparum) growth was shown. EPI was active at a concentration of 1 μM.
Parasitemias were determined by standard methods (microscopic inspection of at least 500 cells, stained with Diff-Quick™ (Baxter). Parasites were cultured under standard conditions in RPMI-1640 supplemented with Hepes/Glucose (10 mM), glutamine (0.3 g/liter) and 10% human plasma. The hematocrit was 1%.

blood cell counts = assay: Enhancement of hemopoiesis in a human HIV patient; assay type: in vivo
Experimental: A human patient infected with the HIV virus was treated with 16α-bromoepiandrosterone (“BrEA”), using a physiological saline formulation containing 10 mg/mL of BrEA in solution, 36% w/v hydroxypropyl-β-cyclodextrin and 20 mg/mL of micronized BrEA in suspension. The patient received two courses of treatment. The first course consisted of subcutaneous injection once per day of 80 mg of BrEA for 10 days. The second course of treatment commenced 74 days later and used the same formulation, except that deuterium oxide replaced water in the formulation. The second treatment course consisted of subcutaneous injection once per day of 80 mg of BrEA for 15 days. The patient's blood parameters were obtained at the start and at the end of each course of treatment.

NK cell = NK cell counts in HIV/HCV infected patient dosed I.V. with BrEA; assay type: in vivo, human; settings: predosing 28
Experimental: A patient infected with HIV and HCV was dosed I.V. with BrEA for 3 consecutive days using a formulation that contained 20 mg/mL BrEA in 45% w/v hydroxypropyl-β-cyclodextrin and saline. Four mL of the formulation (80 mg BrEA) was administered to the patient every 4 hours during the 3 day treatment period. The patient's predosing HCV level was 6.5 Log10 as measured by PCR and the HCV level was 6.2 Log10 on the first day of dosing, 5.5 Log10 on the 3rd day of dosing and 4.9 Log10 three days after the last dose was administered. HIV RNA levels as measured by PCR was 5.2 Log10 (predosing), 5.8 Log10 (first day), 5.9 Log10 (third day) and 5.4 Log10 (day 6). The NK cell counts (cells/mm^3) were 28, 41 and 38 at predosing, day 0 and day 3.

C[C@]12CC[C@H](O)C[C@@H]1CC[C@@H]1[C@@H]2CC[C@]2(C)C(=O)[C@H](Br)C[C@@H]12 [BrEA, 16α-bromo-3β-hydroxy-5α-androstane-17-one]
time for plasma radioactivity to rise to near peak concentration [1]: 8 h
assay potency of BrEA ([2]; after 3 months of storage at 40° C. and 75% relative humidity): at least 95 % of the label value
time BrEA is stable ([2]; elevated temperature and humidity, in the Lot 1 and 2 formulations): at least 3 months
effect on chronic diarrhea [3]: the diarrhea ceased
Parasitemia after treatment (Plasmodium falciparum; 50 nM, 24 hrs, Time 0 2%, control + DMSO 8.80%): 9.90%
Parasitemia after treatment (Plasmodium falciparum; 50 nM, 48 hrs, Time 0 2%, control + DMSO 11%): 9.20%
Parasitemia after treatment (Plasmodium falciparum; 50 nM, 72 hrs, Time 0 2%, control + DMSO 8%): 8.30%
Parasitemia after treatment (Plasmodium falciparum; 1 μM, 24 hrs, Time 0 2%, control + DMSO 8.80%): 5.80%
Parasitemia after treatment (Plasmodium falciparum; 1 μM, 24 hrs, Time 0 5%, control + DMSO 5.40%): 5.70%
Parasitemia after treatment (Plasmodium falciparum; 1 μM, 48 hrs, Time 0 2%, control + DMSO 11%): 6.10%
Parasitemia after treatment (Plasmodium falciparum; 1 μM, 48 hrs, Time 0 5%, control + DMSO 3.10%): 5.50%
Parasitemia after treatment (Plasmodium falciparum; 1 μM, 72 hrs, Time 0 2%, control + DMSO 8%): 2.10%
Parasitemia after treatment (Plasmodium falciparum; 1 μM, 72 hrs, Time 0 5%, control + DMSO 5.20%): 1.60%
Parasitemia after treatment (Plasmodium falciparum; 2.5 μM, 24 hrs, Time 0 2%, control + DMSO 8.80%): 7.30%
Parasitemia after treatment (Plasmodium falciparum; 2.5 μM, 48 hrs, Time 0 2%, control + DMSO 11%): 5.80%
Parasitemia after treatment (Plasmodium falciparum; 2.5 μM, 72 hrs, Time 0 2%, control + DMSO 8%): 3.20%
Parasitemia after treatment (Plasmodium falciparum; 5 μM, 24 hrs, Time 0 2%, control + DMSO 8.80%): 5.40%
Parasitemia after treatment (Plasmodium falciparum; 5 μM, 48 hrs, Time 0 2%, control + DMSO 11%): 6%
Parasitemia after treatment (Plasmodium falciparum; 5 μM, 72 hrs, Time 0 2%, control + DMSO 8%): 1.80%
Parasitemia after treatment (Plasmodium falciparum; 10 μM, 24 hrs, Time 0 2%, control + DMSO 8.80%): 4.20%
Parasitemia after treatment (Plasmodium falciparum; 10 μM, 24 hrs, Time 0 5%, control + DMSO 5.40%): 5.60%
Parasitemia after treatment (Plasmodium falciparum; 10 μM, 48 hrs, Time 0 2%, control + DMSO 11%): 3%
Parasitemia after treatment (Plasmodium falciparum; 10 μM, 48 hrs, Time 0 5%, control + DMSO 3.10%): 0.90%
Parasitemia after treatment (Plasmodium falciparum; 10 μM, 72 hrs, Time 0 2%, control + DMSO 8%): 0%
Parasitemia after treatment (Plasmodium falciparum; 10 μM, 72 hrs, Time 0 5%, control + DMSO 5.20%): 0%
Parasitemia after treatment (Plasmodium falciparum; 50 μM, 24 hrs, Time 0 2%, control + DMSO 8.80%): 0%
Parasitemia after treatment (Plasmodium falciparum; 50 μM, 48 hrs, Time 0 2%, control + DMSO 11%): 0%
Parasitemia after treatment (Plasmodium falciparum; 50 μM, 72 hrs, Time 0 2%, control + DMSO 8%): 0%
Parasitemia after treatment (Plasmodium falciparum; 100 μM, 24 hrs, Time 0 5%, control + DMSO 5.40%): 0%
Parasitemia after treatment (Plasmodium falciparum; 100 μM, 48 hrs, Time 0 5%, control + DMSO 3.10%): 0%
Parasitemia after treatment (Plasmodium falciparum; 100 μM, 72 hrs, Time 0 5%, control + DMSO 5.20%): 0%
Parasitemia after treatment (Plasmodium falciparum; 500 μM, 24 hrs, Time 0 5%, control + DMSO 5.40%): 0%
Parasitemia after treatment (Plasmodium falciparum; 500 μM, 48 hrs, Time 0 5%, control + DMSO 3.10%): 0%
Parasitemia after treatment (Plasmodium falciparum; 500 μM, 72 hrs, Time 0 5%, control + DMSO 5.20%): 0%
concentration at which active on parasite growth (Plasmodium falciparum; P. falciparum culture): 1 µM
WBC (blood cell counts; 1st Course end (80 mg s.c. daily 10 days), start 2.38): 2.47e+09 L⁻¹
basophils (blood cell counts; 1st Course end, start 0.02): 1e+07 L⁻¹
monocytes (blood cell counts; 1st Course end, start 0.35): 3e+08 L⁻¹
neutrophils (blood cell counts; 1st Course end, start 0.92): 8e+08 L⁻¹
CD4+ T cells (blood cell counts; 1st Course end, start 93): 116 mm^−3
CD16+/56+ NK cells (blood cell counts; 1st Course end, start 186): 348 mm^−3
T suppressor cells (blood cell counts; 1st Course end, start 344): 452 mm^−3
WBC (blood cell counts; 2nd Course end (80 mg s.c. daily 15 days), start 3.57): 5.66e+09 L⁻¹
basophils (blood cell counts; 2nd Course end, start 0.01): 6e+07 L⁻¹
monocytes (blood cell counts; 2nd Course end, start 0.34): 5.4e+08 L⁻¹
neutrophils (blood cell counts; 2nd Course end, start 2.02): 3.6e+09 L⁻¹
CD4+ T cells (blood cell counts; 2nd Course end, start 113): 125 mm^−3
CD16+/56+ NK cells (blood cell counts; 2nd Course end, start 144): 425 mm^−3
T suppressor cells (blood cell counts; 2nd Course end, start 351): 513 mm^−3
NK cell counts (NK cell; day 0): 41 cells/mm^3
NK cell counts (NK cell; day 3): 38 cells/mm^3
